# According to ChEMBL document CHEMBL3988442, “University of Dundee, Small-Polar-MMV Screening Library” (2021):
# Tests used:
# [1] = microbe, parasite or virus in culture; conditions: Mycobacterium tuberculosis, 96 h, read-out: pIC50 (converted)
# [2] = microbe, parasite or virus in culture; conditions: Mycobacterium tuberculosis, 72 h, read-out: pIC50 (converted)
Structure (SMILES),IC50 [1],IC50 [2]
Cc1cc(NC2CCC(=O)N(C)C2)n2nccc2n1 (configuration not stated),> 50.1 µM,> 50.1 µM
Cc1nsc(C(=O)NCCCc2ccccc2)n1,47.1 µM,> 50.1 µM
CNCC(=O)NC(C)c1nc(-c2ccc(Br)cc2)no1 (configuration not stated),261 µM,197 µM
O=C(CC1Sc2ccc(Cl)cc2NC1=O)OCCO (configuration not stated),286 µM,222 µM
Cc1cccc(OCC(O)CNc2ncccc2F)c1 (configuration not stated),11.6 µM,19.7 µM
Cc1cc(CN(C)Cc2csc(-c3ccc(C(C)C)cc3)n2)no1,37.9 µM,> 50.1 µM
O=C(c1cc(C2CC2)[nH]n1)N1CCN(Cc2ccc3c(c2)OCO3)CC1,10.3 µM,9.81 µM
CC(C)Cc1cc(C(=O)N(C)Cc2cnccn2)on1,> 501 µM,> 501 µM
CCNc1ncc(C(=O)N2CCCCC2)s1,> 501 µM,377 µM
CC(C)c1ccc(NC(=O)C2COCCN2C)cc1 (configuration not stated),> 501 µM,151 µM
CS(=O)(=O)NCCc1csc(N2CCCC2)n1,> 501 µM,132 µM
c1ccc(-c2noc(CN3CCCC3)n2)cc1,82.1 µM,63.9 µM
CN1CCCCC1CC(=O)NCc1ccc(C#N)cc1 (configuration not stated),> 501 µM,> 501 µM
FC(F)(F)Sc1ccccc1NCc1nc(C2CC2)no1,> 50.1 µM,15.7 µM
Cc1ccc(OCC(=O)NC2(C#N)CCSCC2)cc1C,2.04 µM,20.7 µM
Cc1cccc(NC(=O)CN(C)Cc2nnsc2Cl)n1,> 501 µM,246 µM
COCC(C)NC(=O)CNc1ccc(OC)c(Br)c1 (configuration not stated),184 µM,172 µM
COc1ccc(C)cc1CN1CCn2cccc2C1C (configuration not stated),45.6 µM,18.5 µM
Cc1ccc(CN2CCC3(CC(=O)N(c4cccc(F)c4)C3)C2)o1 (configuration not stated),> 50.1 µM,20.3 µM
N#CC1(C(=O)N2CCc3sccc3C2)CCCC1,167 µM,475 µM
CCc1ccccc1OCCN(C)C(=O)CN1CCCC1,> 50.1 µM,39.2 µM
OCC(CO)Nc1ccc2c(Cl)ccc(Cl)c2n1,> 50.1 µM,> 50.1 µM
NC(=O)CCSCc1ccn(-c2ccccc2)n1,229 µM,> 501 µM
CCc1ccc(S(=O)(=O)N(C)CC(N)=O)s1,> 501 µM,244 µM
CCOCC(=O)NCC(O)c1cccc(C(F)(F)F)c1 (configuration not stated),> 501 µM,> 501 µM
c1ccc(OCCCOC2CNC2)cc1,> 501 µM,177 µM

Structure (SMILES),IC50 [1],IC50 [2]
O=C(CNc1ccccc1F)N1CCCCC1,36.6 µM,71.6 µM
c1csc(CSCCNC2=NCCN2)c1,> 501 µM,> 501 µM
Cc1csc(CN(C)CCOc2ccccc2)n1,20.5 µM,23 µM
CN(Cc1cnn(C)c1)C(=O)c1ccc(=O)n(C)n1,> 50.1 µM,> 50.1 µM
c1ccc(-c2nc(CCNCc3ccncc3)co2)cc1,> 50.1 µM,> 50.1 µM
CC(C)c1nnc2n1CCN(C(=O)c1ccc(-n3cnnc3)cc1)C2,> 50.1 µM,> 50.1 µM
Cc1ccc(CCNc2ncc(C)c(-c3ccnn3C)n2)s1,> 50.1 µM,11.2 µM
COc1cccc(F)c1C(C)NC(=O)c1nccn1C (configuration not stated),252 µM,322 µM
CNC(=O)NC(=O)CCN1CCN(S(C)(=O)=O)CC1,> 501 µM,245 µM
Cc1cc(N2CCC2c2ccccc2)n2ncnc2n1 (configuration not stated),245 µM,162 µM
CCC(N)C(=O)Nc1ccc2c(c1)CCC2 (configuration not stated),176 µM,170 µM
CC(C)NC(=O)CSc1nc(C=Cc2cccs2)n[nH]1,103 µM,122 µM
Cc1nsc(C(=O)NCCc2ccc(F)cc2)n1,12.5 µM,1.84 µM
COc1cc(CNC(=O)C(C)OCC(C)C)ccn1 (configuration not stated),> 501 µM,> 501 µM
CCCC(C)N(C)Cc1nnc(-c2ccc(Br)s2)o1 (configuration not stated),29.4 µM,1.85 µM
O=C(NCc1ccco1)N1CCN(Cc2ccc3c(c2)CCO3)CC1,5.53 µM,11.4 µM
CC(Oc1ccc2c(c1)OCO2)C(=O)NC1CC1 (configuration not stated),> 501 µM,> 501 µM
COc1ccc(-c2noc(C(C)n3ccnc3)n2)cn1 (configuration not stated),442 µM,300 µM
CC(C)c1nsc(NC2CCOC3(CCCC3)C2)n1 (configuration not stated),6.74 µM,12 µM
OCC(O)CSCc1ncc(-c2cccc(Cl)c2)o1 (configuration not stated),> 501 µM,211 µM
O=C(Nc1nnc(-c2cccs2)s1)NC1CCCNC1 (configuration not stated),> 501 µM,127 µM
O=C(c1c[nH]c2ccccc2c1=O)N1CCSCC1,> 50.1 µM,27.8 µM
COCCN1C[C@@H]2CN(c3cc(OC)ncn3)CCC[C@]2(C(=O)O)C1,> 50.1 µM,> 50.1 µM
FC(F)(F)c1ccc(OC2CCNCC2)nc1,230 µM,189 µM
Cc1ccc(-n2nnnc2NCC2CCCO2)cc1 (configuration not stated),119 µM,113 µM
